Where two headings read alike, the source gives them in different places.
Assay: Dynamic vapor sorption (DVS) at a series of relative humidity conditions
Type: physicochemical
Experimental: In some embodiments, the (2S,4R)-1-(2-aminoacetyl)-4-benzamidopyrrolidine-2-carboxylic acid hydrochloride monohydrate is characterized by dynamic vapor sorption (“DVS”). DVS data were collected using Dynamix Vapor Sorption Apparatus (DVS-1) made by Surface Measurement System Ltd. Samples were analyzed by subjecting them to a series of relative humidity (RH) conditions at 25° C. The relative humidity was scanned from about 0% to about 90%.

| Compound | stability of the solid form to changes in humidity (DVS conclusion) | increase in mass when relative humidity increased from 0% RH to 90% RH (DVS, 25° C., first cycle, 0 to about 1200 min (FIG. 7)) [%] | reversible change of mass between 0% RH and 10% RH (DVS, 25° C., 0% RH to 10% RH (FIG. 6)) | mass between 10% RH and about 70% RH (DVS, 25° C., 10% RH to about 70% RH (FIG. 6)) | stability of the solid form to changes in humidity (DVS conclusion) (DVS, 25° C., RH cycled about 0% to about 90%) | reversible mass change between about 70% RH and 90% RH (DVS, 25° C., about 70% RH to 90% RH (FIG. 6)) [%] |
| --- | --- | --- | --- | --- | --- | --- |
| Cl.NCC(=O)N1C[C@H](NC(=O)c2ccccc2)C[C@H]1C(=O)O [(2S,4R)-1-(2-Aminoacetyl)-4-benzamidopyrrolidine-2-carboxylic acid hydrochloride] | not stable to environmental changes in humidity | 21.7 | – | – | – | – |
| Cl.NCC(=O)N1C[C@H](NC(=O)c2ccccc2)C[C@H]1C(=O)O.O [(2S,4R)-1-(2-aminoacetyl)-4-benzamidopyrrolidine-2-carboxylic acid hydrochloride monohydrate] | – | – | about 1.5% | relatively stable mass | sorbed water is reversibly lost and does not appear to adversely affect the integrity of the crystalline form | ~2.5 |

— patent publication US8927590B2, “Synthesis of pyrrolidine compounds” (Zealand Pharma A/S, priority 2006, dated 2015)
